Publication PMC5218480 (PLoS ONE, 2017)

Tested on: MV-4-11 cells
Assay: Gene expression microarray analysis (Affymetrix PrimeView) and GSEA
Type: cell-based, human
Design: RFU PODN (11730768_x_at) / Fold change /veh PODN (11730768_x_at) / RFU LINC00158 (11744669_a_at) / Fold change /veh LINC00158 (11744669_a_at) / RFU DUSP10 (11751237_a_at) / Fold change /veh DUSP10 (11751237_a_at) / RFU ID3 (11757404_x_at) / Fold change /veh ID3 (11757404_x_at) / RFU PLEKHG5 (11737974_s_at) / Fold change /veh PLEKHG5 (11737974_s_at) / RFU LRRC4B (11730491_at) / Fold change /veh LRRC4B (11730491_at) / RFU GIMAP4 (11747438_a_at) / Fold change /veh GIMAP4 (11747438_a_at) / RFU KRT8 (11758183_x_at) / Fold change /veh KRT8 (11758183_x_at) / RFU CNN1 (11734310_a_at) / Fold change /veh CNN1 (11734310_a_at) / RFU VPS37D (11726825_at) / Fold change /veh VPS37D (11726825_at) / RFU C10orf10 (11716522_x_at) / Fold change /veh C10orf10 (11716522_x_at) / RFU KIR2DL2 /// KIR2DL4 /// KIR2DL5A /// KIR2DL5B /// KIR2DS1 /// KIR2DS2 /// KIR2DS3 /// KIR2DS4 /// KIR3DL3 /// KIR3DL3 /// KIR3DS1 (11738374_at) / Fold change /veh KIR2DL2 /// KIR2DL4 /// KIR2DL5A /// KIR2DL5B /// KIR2DS1 /// KIR2DS2 /// KIR2DS3 /// KIR2DS4 /// KIR3DL3 /// KIR3DL3 /// KIR3DS1 (11738374_at) / RFU C1QL1 (11718748_at) / Fold change /veh C1QL1 (11718748_at) / RFU TMPRSS4 (11747572_a_at) / Fold change /veh TMPRSS4 (11747572_a_at) / RFU HAMP (11756126_x_at) / Fold change /veh HAMP (11756126_x_at) / RFU RNFT2 (11725882_a_at) / Fold change /veh RNFT2 (11725882_a_at) / RFU NR4A2 (11747474_a_at) / Fold change /veh NR4A2 (11747474_a_at) / RFU ABCC12 (11746883_a_at) / Fold change /veh ABCC12 (11746883_a_at) / RFU TMEM136 (11760407_x_at) / Fold change /veh TMEM136 (11760407_x_at) / RFU CLDN22 /// WWC2 (11732394_at) / Fold change /veh CLDN22 /// WWC2 (11732394_at) / RFU HLA-DPB1 (11760878_x_at) / Fold change /veh HLA-DPB1 (11760878_x_at) / RFU SPINT1 (11716480_a_at) / Fold change /veh SPINT1 (11716480_a_at) / RFU GAP43 (11754022_s_at) / Fold change /veh GAP43 (11754022_s_at) / RFU A4GNT (11735810_at) / Fold change /veh A4GNT (11735810_at) / RFU PRB3 (11715151_x_at) / Fold change /veh PRB3 (11715151_x_at) / RFU TUBB4B (11761932_at) / Fold change /veh TUBB4B (11761932_at) / RFU CAPN14 (11732068_a_at) / Fold change /veh CAPN14 (11732068_a_at) / RFU TMCC2 (11721928_a_at) / Fold change /veh TMCC2 (11721928_a_at) / RFU IRGQ (11745062_a_at) / Fold change /veh IRGQ (11745062_a_at) / RFU FAM174B (11720279_a_at) / Fold change /veh FAM174B (11720279_a_at) / RFU TMPRSS4 (11748680_a_at) / Fold change /veh TMPRSS4 (11748680_a_at) / RFU FAM212B (11763350_a_at) / Fold change /veh FAM212B (11763350_a_at) / RFU PLEKHG5 (11743358_a_at) / Fold change /veh PLEKHG5 (11743358_a_at) / RFU ZSCAN30 (11745921_a_at) / Fold change /veh ZSCAN30 (11745921_a_at) / RFU CMKLR1 (11741424_a_at) / Fold change /veh CMKLR1 (11741424_a_at) / RFU LOC101060620 /// MAPK8IP1 (11723275_at) / Fold change /veh LOC101060620 /// MAPK8IP1 (11723275_at) / RFU SPTSSB (11747773_x_at) / Fold change /veh SPTSSB (11747773_x_at) / RFU PRSS12 (11739890_at) / Fold change /veh PRSS12 (11739890_at) / RFU BIN1 (11741810_x_at) / Fold change /veh BIN1 (11741810_x_at) / RFU WNT11 (11732464_a_at) / Fold change /veh WNT11 (11732464_a_at) / RFU C10orf10 (11716521_a_at) / Fold change /veh C10orf10 (11716521_a_at) / RFU C5orf56 (11738089_at) / Fold change /veh C5orf56 (11738089_at) / RFU CYB561 (11721691_x_at) / Fold change /veh CYB561 (11721691_x_at) / RFU ANKRD19P (11752326_a_at) / Fold change /veh ANKRD19P (11752326_a_at) / RFU OR2T12 /// OR2T33 /// OR2T8 (11738714_s_at) / Fold change /veh OR2T12 /// OR2T33 /// OR2T8 (11738714_s_at) / RFU VCAN (11748164_a_at) / Fold change /veh VCAN (11748164_a_at) / RFU JSRP1 (11732532_at) / Fold change /veh JSRP1 (11732532_at) / RFU KRTAP10-11 (11738290_x_at) / Fold change /veh KRTAP10-11 (11738290_x_at) / RFU MYO3A (11730013_a_at) / Fold change /veh MYO3A (11730013_a_at) / RFU EBF3 (11725865_a_at) / Fold change /veh EBF3 (11725865_a_at) / RFU CAMK2N1 (11719241_x_at) / Fold change /veh CAMK2N1 (11719241_x_at) / RFU C5orf56 (11738088_a_at) / Fold change /veh C5orf56 (11738088_a_at) / RFU OLFML3 (11715873_a_at) / Fold change /veh OLFML3 (11715873_a_at) / RFU LOC100653217 /// NTM (11731650_a_at) / Fold change /veh LOC100653217 /// NTM (11731650_a_at) / RFU MAPK11 (11762145_a_at) / Fold change /veh MAPK11 (11762145_a_at) / RFU FIZ1 (11724087_x_at) / Fold change /veh FIZ1 (11724087_x_at) / RFU OASL (11726364_x_at) / Fold change /veh OASL (11726364_x_at) / RFU SOX15 (11748057_x_at) / Fold change /veh SOX15 (11748057_x_at) / RFU CD79A (11719716_a_at) / Fold change /veh CD79A (11719716_a_at) / RFU HIST1H1D (11736915_at) / Fold change /veh HIST1H1D (11736915_at) / RFU CASKIN2 (11723855_a_at) / Fold change /veh CASKIN2 (11723855_a_at) / RFU LOC730098 (11760151_x_at) / Fold change /veh LOC730098 (11760151_x_at) / RFU OR4N2 (11742367_at) / Fold change /veh OR4N2 (11742367_at) / RFU PRRT2 (11749266_a_at) / Fold change /veh PRRT2 (11749266_a_at) / RFU SNX32 (11753110_a_at) / Fold change /veh SNX32 (11753110_a_at) / RFU CDHR5 (11726645_a_at) / Fold change /veh CDHR5 (11726645_a_at) / RFU RCAN1 (11760418_a_at) / Fold change /veh RCAN1 (11760418_a_at) / RFU FAM167A (11723789_a_at) / Fold change /veh FAM167A (11723789_a_at) / RFU FAM26E (11764081_at) / Fold change /veh FAM26E (11764081_at) / RFU ISYNA1 (11749810_s_at) / Fold change /veh ISYNA1 (11749810_s_at) / RFU ACY1 (11761880_at) / Fold change /veh ACY1 (11761880_at) / RFU 11764098_at / Fold change /veh 11764098_at / RFU SAMD14 (11745864_x_at) / Fold change /veh SAMD14 (11745864_x_at) / RFU NPB (11741838_a_at) / Fold change /veh NPB (11741838_a_at) / RFU TMPRSS6 (11731388_a_at) / Fold change /veh TMPRSS6 (11731388_a_at) / RFU KRTAP10-2 (11738614_at) / Fold change /veh KRTAP10-2 (11738614_at) / RFU ARHGAP8 /// PRR5-ARHGAP8 (11727945_x_at) / Fold change /veh ARHGAP8 /// PRR5-ARHGAP8 (11727945_x_at) / RFU KRTAP5-7 /// NADSYN1 (11734609_at) / Fold change /veh KRTAP5-7 /// NADSYN1 (11734609_at) / RFU RASL12 (11751679_a_at) / Fold change /veh RASL12 (11751679_a_at) / RFU CDKN2B (11736163_a_at) / Fold change /veh CDKN2B (11736163_a_at) / RFU PRF1 (11729649_at) / Fold change /veh PRF1 (11729649_at) / RFU, ZNF638 /// ZNF638-IT1 / Fold change vs veh, ZNF638 /// ZNF638-IT1 / RFU, PANK3 / Fold change vs veh, PANK3 / RFU, SH3YL1 / Fold change vs veh, SH3YL1 / RFU, ZEB2 / Fold change vs veh, ZEB2 / RFU, NRIP1 / Fold change vs veh, NRIP1 / RFU, PTTG1IP / Fold change vs veh, PTTG1IP / RFU, CAPN2 / Fold change vs veh, CAPN2 / RFU, MED14 / Fold change vs veh, MED14 / RFU, SNORA58 / Fold change vs veh, SNORA58 / RFU, C1orf63 / Fold change vs veh, C1orf63 / RFU, LRRFIP1 / Fold change vs veh, LRRFIP1 / RFU, NDUFAF7 / Fold change vs veh, NDUFAF7 / RFU, SLC12A2 / Fold change vs veh, SLC12A2 / RFU, IBTK / Fold change vs veh, IBTK / RFU, ESF1 / Fold change vs veh, ESF1 / Fold change vs veh, TMEM50B / RFU, TAOK1 / Fold change vs veh, TAOK1 / RFU, ACBD3 / Fold change vs veh, ACBD3 / RFU, TMA16 / Fold change vs veh, TMA16 / RFU, RWDD3 / Fold change vs veh, RWDD3 / RFU, BCAT1 / Fold change vs veh, BCAT1 / RFU, EDEM3 / Fold change vs veh, EDEM3 / RFU, TMEM33 / Fold change vs veh, TMEM33 / RFU, WDR75 / Fold change vs veh, WDR75 / RFU, AHCTF1 / Fold change vs veh, AHCTF1 / RFU, TFRC / Fold change vs veh, TFRC / RFU, ZDHHC17 / Fold change vs veh, ZDHHC17 / RFU, NOM1 / Fold change vs veh, NOM1 / RFU, ARL8B / Fold change vs veh, ARL8B / RFU, ZBTB11 / Fold change vs veh, ZBTB11 / RFU, TAMM41 / Fold change vs veh, TAMM41 / RFU, KIAA1704 /// LOC100996395 / Fold change vs veh, KIAA1704 /// LOC100996395 / RFU, ING1 / Fold change vs veh, ING1 / RFU, TRMT61B / Fold change vs veh, TRMT61B / RFU, FUBP3 / Fold change vs veh, FUBP3 / RFU, TP53 / Fold change vs veh, TP53 / RFU, TNKS2 / Fold change vs veh, TNKS2 / RFU, ZFP14 / Fold change vs veh, ZFP14 / RFU, ACTR2 / Fold change vs veh, ACTR2 / RFU, PPP3R1 / Fold change vs veh, PPP3R1 / RFU, PIK3R1 / Fold change vs veh, PIK3R1 / RFU, HNRNPA1 / Fold change vs veh, HNRNPA1 / RFU, RNF170 / Fold change vs veh, RNF170 / RFU, ZNF28 / Fold change vs veh, ZNF28 / RFU, RNGTT / Fold change vs veh, RNGTT / RFU, OGT / Fold change vs veh, OGT / RFU, BRD1 / Fold change vs veh, BRD1 / RFU, MARS / Fold change vs veh, MARS / RFU, ZNF655 / Fold change vs veh, ZNF655 / RFU, FAHD1 / Fold change vs veh, FAHD1 / RFU, BDP1 / Fold change vs veh, BDP1 / RFU, LRRCC1 / Fold change vs veh, LRRCC1 / RFU, ARID1A / Fold change vs veh, ARID1A / RFU, ZNF146 / Fold change vs veh, ZNF146 / RFU, ZNF330 / Fold change vs veh, ZNF330 / RFU, GPN3 / Fold change vs veh, GPN3 / RFU, C9orf123 / Fold change vs veh, C9orf123 / RFU, N4BP2L2 / Fold change vs veh, N4BP2L2 / RFU, ARFIP1 / Fold change vs veh, ARFIP1 / RFU, FAM179B / Fold change vs veh, FAM179B / RFU, BCL10 / Fold change vs veh, BCL10 / RFU, UHRF1BP1L / Fold change vs veh, UHRF1BP1L / RFU, BET1 / Fold change vs veh, BET1 / RFU, CNOT2 / Fold change vs veh, CNOT2 / RFU, ZNF268 / Fold change vs veh, ZNF268 / Fold change vs veh, ZNF507 / RFU, DGCR2 / Fold change vs veh, DGCR2 / RFU, WDSUB1 / Fold change vs veh, WDSUB1 / Fold change vs veh, HSP90B1 /// MIR3652 / RFU, ADSS / Fold change vs veh, ADSS / RFU, GK / Fold change vs veh, GK / RFU, ZNF148 / Fold change vs veh, ZNF148 / RFU, TAF9 / Fold change vs veh, TAF9 / RFU, SLC1A5 / Fold change vs veh, SLC1A5 / RFU, SLMO2 / Fold change vs veh, SLMO2 / RFU, ABCC4 / Fold change vs veh, ABCC4 / RFU, LOC101060439 /// RAP1B / Fold change vs veh, LOC101060439 /// RAP1B / RFU, RFX7 / Fold change vs veh, RFX7 / RFU, GTPBP10 / Fold change vs veh, GTPBP10 / RFU, CNEP1R1 / Fold change vs veh, CNEP1R1 / RFU, BIVM-ERCC5 /// ERCC5 / Fold change vs veh, BIVM-ERCC5 /// ERCC5 / RFU, ILF3 / Fold change vs veh, ILF3 / RFU 11762660_at / Fold change /veh 11762660_at / RFU VCAN (11757783_s_at) / Fold change /veh VCAN (11757783_s_at) / RFU DDX43 (11728927_at) / Fold change /veh DDX43 (11728927_at) / RFU KRT8 (11758188_x_at) / Fold change /veh KRT8 (11758188_x_at) / RFU NKD1 (11759106_at) / Fold change /veh NKD1 (11759106_at) / RFU SRD5A1 (11742802_a_at) / Fold change /veh SRD5A1 (11742802_a_at) / RFU TPSAB1 /// TPSB2 (11721975_s_at) / Fold change /veh TPSAB1 /// TPSB2 (11721975_s_at) / RFU GSTM3 (11746129_a_at) / Fold change /veh GSTM3 (11746129_a_at) / RFU IL23R (11737362_x_at) / Fold change /veh IL23R (11737362_x_at) / RFU TMEM51 (11727254_a_at) / Fold change /veh TMEM51 (11727254_a_at) / RFU PIWIL2 (11732686_x_at) / Fold change /veh PIWIL2 (11732686_x_at) / RFU ORM1 (11744905_x_at) / Fold change /veh ORM1 (11744905_x_at) / RFU CCDC152 (11743942_at) / Fold change /veh CCDC152 (11743942_at) / RFU ECM1 (11717891_a_at) / Fold change /veh ECM1 (11717891_a_at) / RFU IL23R (11748794_a_at) / Fold change /veh IL23R (11748794_a_at) / RFU TNFAIP8L3 (11732012_x_at) / Fold change /veh TNFAIP8L3 (11732012_x_at) / RFU MBOAT4 (11741988_at) / Fold change /veh MBOAT4 (11741988_at) / RFU 11764193_at / Fold change /veh 11764193_at / RFU TMEM53 (11763286_at) / Fold change /veh TMEM53 (11763286_at) / RFU MAGEB2 (11727129_at) / Fold change /veh MAGEB2 (11727129_at) / RFU TMEM200A (11744735_a_at) / Fold change /veh TMEM200A (11744735_a_at) / RFU CCDC152 (11751479_a_at) / Fold change /veh CCDC152 (11751479_a_at) / RFU FAM211A (11726209_a_at) / Fold change /veh FAM211A (11726209_a_at) / RFU RGS16 (11746705_a_at) / Fold change /veh RGS16 (11746705_a_at) / RFU VCAN (11755009_s_at) / Fold change /veh VCAN (11755009_s_at) / RFU RHOB (11743442_s_at) / Fold change /veh RHOB (11743442_s_at) / RFU RGS16 (11720943_a_at) / Fold change /veh RGS16 (11720943_a_at) / RFU RGS16 (11720944_at) / Fold change /veh RGS16 (11720944_at) / RFU, VPS4B / Fold change vs veh, VPS4B / RFU, CREB1 / Fold change vs veh, CREB1 / RFU, DNAJC13 / Fold change vs veh, DNAJC13 / RFU, GNAQ / Fold change vs veh, GNAQ / RFU, CDK5R1 / Fold change vs veh, CDK5R1 / RFU, ZRANB3 / Fold change vs veh, ZRANB3 / RFU, CUL4A / Fold change vs veh, CUL4A / RFU, CCNY / Fold change vs veh, CCNY / RFU, UFL1 / Fold change vs veh, UFL1 / RFU, COG3 / Fold change vs veh, COG3 / RFU, DIAPH2 / Fold change vs veh, DIAPH2 / RFU, SKA2 / Fold change vs veh, SKA2 / RFU, AFF3 / Fold change vs veh, AFF3 / RFU, LMF1 / Fold change vs veh, LMF1 / RFU, IPO11 / Fold change vs veh, IPO11 / RFU, DFFB / Fold change vs veh, DFFB / RFU, FOXP1 / Fold change vs veh, FOXP1 / RFU, CARD8 / Fold change vs veh, CARD8 / RFU, STRN3 / Fold change vs veh, STRN3 / RFU, ADK / Fold change vs veh, ADK / RFU, RASSF2 / Fold change vs veh, RASSF2 / RFU, WIPF1 / Fold change vs veh, WIPF1 / RFU, LARP1B / Fold change vs veh, LARP1B / RFU, RASA1 / Fold change vs veh, RASA1 / RFU, RB1 / Fold change vs veh, RB1 / RFU, PPFIA1 / Fold change vs veh, PPFIA1 / RFU, MAT2A / Fold change vs veh, MAT2A / RFU, CCT5 / Fold change vs veh, CCT5 / RFU, WDR92 / Fold change vs veh, WDR92 / RFU, CUX1 / Fold change vs veh, CUX1 / RFU, TTC7A / Fold change vs veh, TTC7A / RFU, TMEM135 / Fold change vs veh, TMEM135 / RFU, DEPTOR / Fold change vs veh, DEPTOR / RFU, CPM / Fold change vs veh, CPM / RFU, DNAJB6 / Fold change vs veh, DNAJB6 / RFU, CACNA2D3 / Fold change vs veh, CACNA2D3 / RFU, DTX4 / Fold change vs veh, DTX4 / RFU, TFCP2 / Fold change vs veh, TFCP2 / RFU, GMCL1 /// GMCL1P1 / Fold change vs veh, GMCL1 /// GMCL1P1 / RFU, AEBP2 / Fold change vs veh, AEBP2 / RFU, SNHG1 /// SNORD22 /// SNORD25 /// SNORD26 /// SNORD27 /// SNORD28 /// SNORD29 /// SNORD31 / Fold change vs veh, SNHG1 /// SNORD22 /// SNORD25 /// SNORD26 /// SNORD27 /// SNORD28 /// SNORD29 /// SNORD31 / Fold change (Aza/veh), C12orf56 (ProbeSet 11735607_a_at) / Fold change (ACY-1035/veh), C12orf56 (ProbeSet 11735607_a_at) / Fold change (Aza/veh), FGFR1OP (ProbeSet 11751329_s_at) / Fold change (ACY-1035/veh), FGFR1OP (ProbeSet 11751329_s_at) / Fold change (Aza/veh), VPS36 (ProbeSet 11739960_a_at) / Fold change (ACY-1035/veh), VPS36 (ProbeSet 11739960_a_at) / RFU SYPL1 (11715823_x_at) / Fold change /veh SYPL1 (11715823_x_at) / RFU IGFBP7 (11715501_s_at) / Fold change /veh IGFBP7 (11715501_s_at) / RFU REEP3 (11722064_at) / Fold change /veh REEP3 (11722064_at) / RFU IGLL1 (11728026_x_at) / Fold change /veh IGLL1 (11728026_x_at): dose or concentration left out as unconfirmed
Details: MV-4-11 cells, 48 hours

Nc1ncn([C@@H]2O[C@H](CO)[C@@H](O)[C@H]2O)c(=O)n1 [azacitidine]
RFU HLA-DPB1 (11760878_x_at): 15.97 RFU
